Assay results taken from patent US20090247624A1, “FORMULATIONS OF RADIOPROTECTIVE ALPHA BETA UNSATURATED ARYL SULFONES” (Onconova Therapeutics Inc., priority 2006, published 2009).

Experiments:
HFL-1 cells = assay: Radioprotective effects on cultured normal cells (colony count); type: cell-based, human; settings: 2.5 to 20 micromolar for 24 hrs before 10 Gy or 15 Gy; colonies on test plates / control plates
Procedure: HFL-1 cells, which are normal diploid lung fibroblasts, were plated into 24 well dishes at a cell density of 3000 cells per 10 mm^2 in DMEM completed with 10% fetal bovine serum and antibiotics. The test compounds listed in Table 11 were added to the cells 24 hours later in select concentrations from 2.5 to 20 micromolar, inclusive, using DMSO as a solvent. Control cells were treated with DMSO alone. The cells were exposed to the test compound or DMSO for 24 hrs. The cells were then irradiated with either 10 Gy (gray) or 15 Gy of ionizing radiation (IR) using a J. L. Shepherd Mark I, Model 30-1 Irradiator equipped with ^137cesium as a source.
After irradiation, the medium on the test and control cells was removed and replaced with fresh growth medium without the test compounds or DMSO. The irradiated cells were incubated for 96 hours and duplicate wells were trypsinized and replated onto 100 mm^2 tissue culture dishes. The replated cells were grown under normal conditions with one change of fresh medium for 3 weeks. The number of colonies from each 100 mm^2 culture dish, which represents the number of surviving cells, was determined by staining the dishes as described below.
To visualize and count the colonies derived from the clonal outgrowth of individual radioprotected cells, the medium was removed and the plates were washed one time with room temperature phosphate buffered saline. The cells were stained with a 1:10 diluted Modified Giemsa staining solution (Sigma) for 20 minutes. The stain was removed, and the plates were washed with tap water. The plates were air dried, the number of colonies from each plate were counted and the average from duplicate plates was determined.
A “+” indicates radioprotective activity of between 2- and 4.5-fold at the concentrations tested. Fold protection was determined by dividing the average number of colonies from the test plates by the average number of colonies on the control plates.

C57 black mice = assay: Protection of mice from radiation toxicity by pre-treatment; type: in vivo
Procedure: C57 black mice age 10-12 weeks (Taconic) were divided into two treatment groups of 10 mice each. One group, designated the “200×2” group, received intraperitoneal injections of 200 micrograms (E)-4-carboxystyryl-4-chlorobenzylsulfone dissolved in DMSO (a 10 mg/Kg dose, based on 20 g mice) 18 and 6 hours before irradiation with 8 Gy gamma radiation. The other group, designated “500×2,” received intraperitoneal injections of 500 micrograms (E)-4-carboxystyryl-4-chlorobenzylsulfone dissolved in DMSO (a 25 mg/Kg dose, based on 20 g mice) 18 and 6 hours before irradiation with 8 Gy gamma radiation. A control group of 16 animals received 8 Gy gamma radiation alone.

human = settings: approximately 500 mg/kg iv continuously as 5 percent aqueous solution, one individual, four days; cited from earlier work
[1] = room temperature; cited from earlier work
rodent species = settings: after IP and IV administration to different rodent species; cited from earlier work
[2] = “200×2” group: 10 mg/Kg i.p. 18 and 6 hours before 8 Gy gamma radiation
[3] = “500×2” group: 25 mg/Kg i.p. 18 and 6 hours before 8 Gy gamma radiation

Compound | Activity (radioprotection, fold protection) (HFL-1 cells) | also measured
O=S(=O)(/C=C/c1ccc(F)cc1)Cc1ccc(Cl)cc1 [Compound 1, (E)-4-Fluorostyryl-4-chlorobenzylsulfone] | + (A “+” indicates radioprotective activity of between 2- and 4.5-fold at the concentrations tested) | 
O=S(=O)(/C=C\c1ccc(F)cc1)Cc1ccc(Cl)cc1 [Compound 7, (Z)-4-Fluorostyryl-4-chlorobenzylsulfone] | + (A “+” indicates radioprotective activity of between 2- and 4.5-fold at the concentrations tested) | 
O=S(=O)(/C=C/c1ccoc1)Cc1ccc(Cl)cc1Cl [Compound 8, (E)-3-Furanethenyl-2,4-dichlorobenzylsulfone] | + (A “+” indicates radioprotective activity of between 2- and 4.5-fold at the concentrations tested) | 
O=C(O)c1ccc(/C=C/S(=O)(=O)Cc2ccc(Cl)cc2)cc1 [Compound 13, (E)-4-Carboxystyryl-4-chlorobenzylsulfone] | + (A “+” indicates radioprotective activity of between 2- and 4.5-fold at the concentrations tested) | maximum mortality rate by day 40 (C57 black mice; [2]): approximately 60%; mice dead at day 20 (C57 black mice; [2]): about 50%; maximum mortality rate by day 40 (C57 black mice; [3]): about 50%; mice dead at day 20 (C57 black mice; [3]): about 30%
(E)-2,4,6-Trimethoxystyryl-4-methoxybenzylsulfone [Compound 2] | + (A “+” indicates radioprotective activity of between 2- and 4.5-fold at the concentrations tested) | 
(E)-4-Fluorostyryl-4-chlorophenylsulfone [Compound 10] | + (A “+” indicates radioprotective activity of between 2- and 4.5-fold at the concentrations tested) | 
(E)-4-Fluorostyryl-4-cyanobenzylsulfone [Compound 6] | + (A “+” indicates radioprotective activity of between 2- and 4.5-fold at the concentrations tested) | 
(E)-4-Fluorostyryl-4-trifluoromethylbenzylsulfone [Compound 5] | + (A “+” indicates radioprotective activity of between 2- and 4.5-fold at the concentrations tested) | 
(Z)-Styryl-(E)-2-methoxy-4-ethoxystyrylsulfone [Compound 11] | + (A “+” indicates radioprotective activity of between 2- and 4.5-fold at the concentrations tested) | 
Hydroxypropyl-B-Cyclodextrin [HPCD] |  | adverse clinical effects (human): no adverse clinical effects were reported; solubility in water [1]: greater than 500 mg/ml; toxicity (rodent species): non-toxic
